Results from US9708336B2, “Metallo-beta-lactamase inhibitors” (priority 2014, dated 2017).
Read-outs that look alike come from different tables or passages of the source.

How the values were obtained:
VIM-1 = VIM-1 (Pseudomonas aeruginosa (strain ATCC 15692 / DSM 22644 / CIP 104116 / JCM 14847 / LMG 12228 / 1C / PRS 101 / PAO1), UniProt A0A0F7KYQ8); test: Enzyme activity: determination of IC50, fluorescence assay with CCF2-FA substrate (VIM-1); assay type: biochemical
[1] = system: Klebsiella pneumoniae expressing VIM-1 (IHMA599644); test: Antibiotic potentiation activity: synergistic concentration (MITC95) with imipenem, OD600 growth; assay type: cell-based; conditions: for Klebsiella pneumoniae expressing VIM-1 (IHMA 599644) MITC95: concentration giving 95% inhibition of bacterial growth
Method in brief: (§1)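 CLB30005 was precultured on Mueller Hinton agar with 8 ug/ml imipenem, the other strains on trypticase soy agar with 5% sheep blood, overnight at 35 °C. Saline suspensions diluted 1:100 in 1.1× CAMHB received compound and 4 μg/ml imipenem, then 22–24 h at 35 °C before absorbance reading.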

[2] = system: Escherichia coli expressing NDM-1 (CLB30016); test: as above; assay type: cell-based; conditions: for Escherichia coli expressing NDM-1 (CLB 30016) MITC95: concentration giving 95% inhibition of bacterial growth
Method in brief: as §1

[3] = system: Serratia marcescens expressing IMP-1 (CL5741); test: as above; assay type: cell-based; conditions: for Serratia marcescens expressing IMP-1 (CL5741) MITC95: concentration giving 95% inhibition of bacterial growth
Method in brief: as §1

NDM-1 = NDM-1 (Klebsiella pneumoniae, UniProt C7C422); test: biochemical; assay type: biochemical; conditions: read-out: NDM-1 IC50
IMP-1 = IMP-1 (Serratia marcescens, UniProt P52699); test: biochemical; assay type: biochemical; conditions: read-out: IMP-1 IC50
[4] = VIM-1 IC50, VIM-1 enzyme, CCF2-FA substrate
[5] = Klebsiella pneumoniae IHMA599644 (VIM-1), 95% growth inhibition
[6] = (CLB30016, NDM-1), 95% growth inhibition
[7] = Serratia marcescens CL5741 (IMP-1), 95% growth inhibition
[8] = NDM-1 enzyme, CCF2-FA substrate
[9] = IMP-1 enzyme, CCF2-FA substrate
[10] = VIM-1 enzyme, CCF2-FA fluorescence assay, read-out: VIM-1 IC50
[11] = Klebsiella pneumoniae expressing VIM-1 (IHMA599644), 95% growth inhibition
[12] = Escherichia coli expressing NDM-1 (CLB30016), 95% growth inhibition
[13] = Serratia marcescens expressing IMP-1 (CL5741), 95% growth inhibition
[14] = NDM-1 enzyme, CCF2-FA fluorescence assay
[15] = IMP-1 enzyme, CCF2-FA fluorescence assay
[16] = VIM-1 enzyme, CCF2-FA substrate, read-out: VIM-1 IC50
[17] = fluorescence assay with CCF2-FA substrate, read-out: VIM-1 IC50
[18] = IHMA599644 (VIM-1), 95% inhibition of bacterial growth
[19] = CLB30016 (NDM-1), 95% inhibition of bacterial growth
[20] = CL5741 (IMP-1), 95% inhibition of bacterial growth
[21] = fluorescence assay with CCF2-FA substrate

IMP-1, sequence (P52699 whole entry, looked up): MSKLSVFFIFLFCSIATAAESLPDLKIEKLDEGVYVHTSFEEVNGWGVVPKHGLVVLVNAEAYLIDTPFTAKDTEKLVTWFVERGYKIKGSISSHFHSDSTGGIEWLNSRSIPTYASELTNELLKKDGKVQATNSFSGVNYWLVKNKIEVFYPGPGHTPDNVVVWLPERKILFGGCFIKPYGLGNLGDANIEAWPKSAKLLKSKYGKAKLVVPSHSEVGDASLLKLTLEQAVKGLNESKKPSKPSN
NDM-1, sequence (C7C422 whole entry, looked up, species assumed): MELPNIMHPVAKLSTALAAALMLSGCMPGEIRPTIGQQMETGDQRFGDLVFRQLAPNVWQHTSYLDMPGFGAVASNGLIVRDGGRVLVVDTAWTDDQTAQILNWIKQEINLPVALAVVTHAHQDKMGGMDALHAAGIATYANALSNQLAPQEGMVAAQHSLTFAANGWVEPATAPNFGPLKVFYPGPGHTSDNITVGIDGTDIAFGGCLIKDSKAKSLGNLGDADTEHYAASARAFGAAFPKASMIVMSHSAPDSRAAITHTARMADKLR

NC1=NCC(c2ccc(-c3cccc(S(N)(=O)=O)c3-c3nnn[nH]3)cc2)CN1 (stereo not drawn) [Example 511, 4′-(2-Amino-1,4,5,6-tetrahydropyrimidin-5-yl)-2-(1H-tetrazol-5-yl)-[1,1′-biphenyl]-3-sulfonamide]
IC50 (VIM-1; [4]): 41.6 nM | Klebsiella pneumoniae MITC95 [1, 5]: 100 µM | Escherichia coli MITC95 [2, 6]: 3.125 µM | Serratia marcescens MITC95 [3, 7]: 3.125 µM | IC50 (NDM-1; [8]): 4.8 nM | IC50 (IMP-1; [9]): 14.3 nM

NS(=O)(=O)c1c(C(F)(F)F)ccc(N2CCC(c3ccc(CO)cc3)CC2)c1-c1nn[nH]n1 [Example 450, 3-(4-(4-(hydroxymethyl)phenyl)piperidin-1-yl)-2-(2H-tetrazol-5-yl)-6-(trifluoromethyl)benzenesulfonamide]
IC50 (VIM-1; [10]): 1.8 nM | Klebsiella pneumoniae MITC95 [1, 11]: 75 µM | Escherichia coli MITC95 [2, 12]: 18.75 µM | Serratia marcescens MITC95 [3, 13]: 0.03125 µM | IC50 (NDM-1; [14]): 1.62 nM | IC50 (IMP-1; [15]): 1.28 nM

NS(=O)(=O)c1c(C(F)(F)F)ccc(-c2cnc3[nH]ccc3c2)c1-c1nnn[nH]1 [Example 708, 3-(1H-pyrrolo[2,3-b]pyridin-5-yl)-2-(1H-tetrazol-5-yl)-6-(trifluoromethyl)benzenesulfon-amide]
IC50 (VIM-1; [16]): 0.144 nM | Klebsiella pneumoniae MITC95 [1, 5]: 6.25 µM | Escherichia coli MITC95 [2, 6]: 1.563 µM | Serratia marcescens MITC95 [3, 7]: 6.25 µM | IC50 (NDM-1; [8]): 0.38 nM | IC50 (IMP-1; [9]): 1.6 nM

NCCC1CCN(c2ccc(C(F)(F)F)c(S(N)(=O)=O)c2-c2nnn[nH]2)CC1 [Example 755, 3-[4-(2-aminoethyl)piperidin-1-yl]-2-(1H-tetrazol-5-yl)-6-(trifluoromethyl) benzenesulfonamide]
IC50 (VIM-1; [17]): 0.191 nM | Klebsiella pneumoniae MITC95 [1, 18]: 3.125 µM | Escherichia coli MITC95 [2, 19]: 6.25 µM | Serratia marcescens MITC95 [3, 20]: 6.25 µM | IC50 (NDM-1; [21]): 13.9 nM | IC50 (IMP-1; [21]): 22.1 nM

NS(=O)(=O)c1cccc(-c2snc3ncccc23)c1-c1nnn[nH]1 [Example 413, 3-isothiazolo[3,4-b]pyridin-3-yl-2-(1H-tetrazol-5-yl)benzenesulfonamide]
IC50 (VIM-1; [10]): 2.08 nM | Klebsiella pneumoniae MITC95 [1, 11]: 4.688 µM | Escherichia coli MITC95 [2, 12]: 0.5859 µM | Serratia marcescens MITC95 [3, 13]: 9.375 µM | IC50 (NDM-1; [14]): 2.12 nM | IC50 (IMP-1; [15]): 340 nM

N=C(N)N1CCC(Cc2ccc(-c3ccc(C4CNC4)cc3)c(-c3nn[nH]n3)c2S(N)(=O)=O)CC1 [Example 604, 4-[[4-[4-(azetidin-3-yl)phenyl]-2-sulfamoyl-3-(2H-tetrazol-5-yl)phenyl]methyl]piperidine-1-carboxamidine]
IC50 (VIM-1; [16]): 0.899 nM | Klebsiella pneumoniae MITC95 [1, 5]: 1.563 µM | Escherichia coli MITC95 [2, 6]: 1.563 µM | Serratia marcescens MITC95 [3, 7]: 6.25 µM | IC50 (NDM-1; [8]): 3.31 nM | IC50 (IMP-1; [9]): 41.7 nM

NS(=O)(=O)c1c(C(F)(F)F)ccc(CC[C@H]2CC[C@@H](N)CC2)c1-c1nn[nH]n1 [Example 432, 3-(2-((1s,4r)-4-aminocyclohexyl)ethyl)-2-(2H-tetrazol-5-yl)-6-(trifluoromethyl)benzenesulfonamide]
IC50 (VIM-1; [10]): 4.72 nM | Klebsiella pneumoniae MITC95 [1, 11]: 18.75 µM | Escherichia coli MITC95 [2, 12]: 6.25 µM | Serratia marcescens MITC95 [3, 13]: 0.3906 µM | IC50 (NDM-1; [14]): 47.9 nM | IC50 (IMP-1; [15]): 11.7 nM

CN(Cc1ccccc1)c1ccnc(S(N)(=O)=O)c1-c1nnn[nH]1 [Example 229, 4-[benzyl(methyl)amino]-3-(1H-tetrazol-5-yl)pyridine-2-sulfonamide]
IC50 (VIM-1; VIM-1 IC50, fluorescence assay with CCF2-FA substrate): 2.22 nM | Klebsiella pneumoniae expressing VIM-1 (IHMA 599644) MITC95 [1]: 6.25 µM | Escherichia coli expressing NDM-1 (CLB 30016) MITC95 [2]: 12.5 µM | Serratia marcescens expressing IMP-1 (CL5741) MITC95 [3]: 50 µM | IC50 (NDM-1; [21]): 204 nM | IC50 (IMP-1; [21]): 466 nM

NS(=O)(=O)c1c(C(F)(F)F)ccc(-c2ccc(C3CCN(C4CCNCC4)CC3)cc2)c1-c1nnn[nH]1 [Example 785, 4′-(1,4′-bipiperidin-4-yl)-2-(1H-tetrazol-5-yl)-4-(trifluoromethyl)biphenyl-3-sulfonamide]
IC50 (VIM-1; [17]): 12.2 nM | Klebsiella pneumoniae MITC95 [1, 18]: 25 µM | Escherichia coli MITC95 [2, 19]: 1.563 µM | Serratia marcescens MITC95 [3, 20]: 3.125 µM | IC50 (NDM-1; [21]): 4.21 nM | IC50 (IMP-1; [21]): 1.09 nM

N[C@@]1(c2ccc(-c3ccc(C(F)(F)F)c(S(N)(=O)=O)c3-c3nn[nH]n3)cc2)CCNC1 [Example 548, 3-[4-[(3R)-3-aminopyrrolidin-3-yl]phenyl]-2-(2H-tetrazol-5-yl)-6-(trifluoromethyl)benzenesulfonamide]
IC50 (VIM-1; [16]): 0.519 nM | Klebsiella pneumoniae MITC95 [1, 5]: 1.563 µM | Escherichia coli MITC95 [2, 6]: 3.125 µM | Serratia marcescens MITC95 [3, 7]: 3.125 µM | IC50 (NDM-1; [8]): 7.54 nM | IC50 (IMP-1; [9]): 10.5 nM

Nc1ncc(CCc2ccc(C(F)(F)F)c(S(N)(=O)=O)c2-c2nn[nH]n2)cc1CO [Example 508, 3-(2-(6-Amino-5-(hydroxymethyl)pyridin-3-yl)ethyl)-2-(2H-tetrazol-5-yl)-6-(trifluoromethyl)benzenesulfonamide]
IC50 (VIM-1; [16]): 1.66 nM | Klebsiella pneumoniae MITC95 [1, 5]: 3.125 µM | Escherichia coli MITC95 [2, 6]: 0.8359 µM | Serratia marcescens MITC95 [3, 7]: 0.0625 µM | IC50 (NDM-1; [8]): 4.55 nM | IC50 (IMP-1; [9]): 2.37 nM

Cc1cc(CNCc2ccc(-c3cccc(S(N)(=O)=O)c3-c3nnn[nH]3)cc2)n[nH]1 [Example 354, 4′-({[(5-methyl-1H-pyrazol-3-yl)methyl]amino}methyl)-2-(1H-tetrazol-5-yl)biphenyl-3-sulfonamide]
IC50 (VIM-1; [10]): 325 nM | Klebsiella pneumoniae MITC95 [1, 11]: 200 µM | Escherichia coli MITC95 [2, 12]: 2.344 µM | Serratia marcescens MITC95 [3, 13]: 2.344 µM | IC50 (NDM-1; [14]): 7.33 nM | IC50 (IMP-1; [15]): 16.4 nM

NS(=O)(=O)c1cccc(-c2ccc(CNCCc3cc[nH]n3)cc2)c1-c1nnn[nH]1 [Example 389, 4′-({[2-(1H-pyrazol-3-yl)ethyl]amino}methyl)-2-(1H-tetrazol-5-yl)biphenyl-3-sulfonamide]
IC50 (VIM-1; [10]): 146 nM | Klebsiella pneumoniae MITC95 [1, 11]: 75 µM | Escherichia coli MITC95 [2, 12]: 1.563 µM | Serratia marcescens MITC95 [3, 13]: 2.344 µM | IC50 (NDM-1; [14]): 3.33 nM | IC50 (IMP-1; [15]): 64 nM

Nc1nc2c(-c3cccc(S(N)(=O)=O)c3-c3nnn[nH]3)cccc2s1 [Example 134, 3-(2-aminobenzo[d]thiazol-4-yl)-2-(1H-tetrazol-5-yl)benzenesulfonamide]
IC50 (VIM-1; [17]): 11.1 nM | Klebsiella pneumoniae expressing VIM-1 (IHMA 599644) MITC95 [1]: 3.125 µM | Escherichia coli expressing NDM-1 (CLB 30016) MITC95 [2]: 0.5859 µM | Serratia marcescens expressing IMP-1 (CL5741) MITC95 [3]: 0.7813 µM | IC50 (NDM-1; [21]): 0.28 nM | IC50 (IMP-1; [21]): 22.6 nM

NC[C@H]1CC[C@@H](Cc2ccc(-c3ccc(N)nc3)c(-c3nnn[nH]3)c2S(N)(=O)=O)CC1 [Example 580, 6-(((1s,4s)-4-(aminomethyl)cyclohexyl)methyl)-3-(6-aminopyridin-3-yl)-2-(1H-tetrazol-5-yl)benzenesulfonamide]
IC50 (VIM-1; [4]): 13.4 nM | Klebsiella pneumoniae MITC95 [1, 5]: 12.5 µM | Escherichia coli MITC95 [2, 6]: 1.563 µM | Serratia marcescens MITC95 [3, 7]: 6.25 µM | IC50 (NDM-1; [8]): 0.869 nM | IC50 (IMP-1; [9]): 22.7 nM

Nc1nc2c(-c3ccc(CCC4CCC(N)CC4)c(S(N)(=O)=O)c3-c3nn[nH]n3)cccc2s1 (stereo not drawn) [Example 541, 3-(2-Aminobenzo[d]thiazol-4-yl)-6-(2-(4-aminocyclohexyl)ethyl)-2-(2H-tetrazol-5-yl)benzenesulfonamide]
IC50 (VIM-1; [16]): 5.11 nM | Klebsiella pneumoniae MITC95 [1, 5]: 25 µM | Escherichia coli MITC95 [2, 6]: 3.125 µM | Serratia marcescens MITC95 [3, 7]: 6.25 µM | IC50 (NDM-1; [8]): 0.133 nM | IC50 (IMP-1; [9]): 7.21 nM

N[C@]1(c2ccc(-c3ccc(C(F)(F)F)c(S(N)(=O)=O)c3-c3nn[nH]n3)cc2)CCNC1 [Example 547, 3-[4-[(3S)-3-aminopyrrolidin-3-yl]phenyl]-2-(2H-tetrazol-5-yl)-6-(trifluoromethyl)benzenesulfonamide]
IC50 (VIM-1; [16]): 1.18 nM | Klebsiella pneumoniae MITC95 [1, 5]: 6.25 µM | Escherichia coli MITC95 [2, 6]: 6.25 µM | Serratia marcescens MITC95 [3, 7]: 3.125 µM | IC50 (NDM-1; [8]): 9.32 nM | IC50 (IMP-1; [9]): 9.14 nM

NS(=O)(=O)c1cccc(-c2ccc(C3CCN(CC4CCNC4)CC3)cc2)c1-c1nnn[nH]1 (stereo not drawn) [Example 618, 3-[4-[1-(pyrrolidin-3-ylmethyl)-4-piperidyl]phenyl]-2-(1H-tetrazol-5-yl)benzenesulfonamide]
IC50 (VIM-1; [16]): 345 nM | Klebsiella pneumoniae MITC95 [1, 5]: 75 µM | Escherichia coli MITC95 [2, 6]: 0.3906 µM | Serratia marcescens MITC95 [3, 7]: 0.3906 µM | IC50 (NDM-1; [8]): 11.7 nM | IC50 (IMP-1; [9]): 16.1 nM
